Data reported in PMC10368370, “Development of o-aminobenzamide salt derivatives for improving water solubility and anti-undifferentiated gastric cancer” (Frontiers in Pharmacology, 2023).
Like-named read-outs stand apart in the source and are kept apart here.

What was measured:
[1] = system: HGC-27 xenograft; assay: HGC-27 tumor xenograft model; format: in vivo, BALB/c nude mice; details: p.o., bid, 14 days, HGC-27 xenograft
Protocol: 4-week-old male BALB/c nude mice weighing 18g–22 g were injected with 100 μL HGC-27 cells (2 × 10^6 cells) to establish an undifferentiated gastric cancer model.
(A) Tumor volumes plotted as mean ± SEM. (B) Mice weight curve during treatment plotted as mean ± SD. (C,D) Tumor weight and size on the final day.

[2] = system: HGC-27 cells; assay: MTT cytotoxicity / anti-proliferation assay; format: cell-based, human; details: Homo sapiens, HGC-27, 72 h, HGC-27, MTT, read-out: IC50, cancer cell viability
Protocol: Undifferentiated human gastric cancer cell line (HGC-27) was purchased from the China Center for Type Collection (CCTCC, China) and used with 10% Foetal Bovine Serum (FBS, Gemini, Bio-Product, CA, United States), 1% penicillin streptomycin (PS) and 89% 1,640 medium ([…]) for culture. All cells were incubated at 37°C in a constant temperature incubator containing 95% air and 5% CO2.
To evaluate the cytotoxicity of F8 and related organic salts on HGC-27 cells, MTT analysis was performed. HGC-27 cells were digested with trypsin, then cells were spread into 96-well plates at a density of 3,000 cells/well and incubated for 12–16 h. After 12 h, the medium in 96-well plates was replaced with compounds containing 1, 0.5, 0.25, 0.125, 0.062, 0.0312 μM for another 72 h. Three days later, 20 μL MTT solution was added and incubated at 37°C for 4 h. Then 150 μL DMSO solution was added to each well after the fluid was removed, and the absorbance was detected by microplate reader. The compound dissolved in DMSO was added to the cell medium so that the final concentration of DMSO was less than 0.4%.
Infinite proliferation is one of the most prominent features of cancer cells, therefore, we evaluated the anti-proliferation activity of compounds F8 and related organic salts against human gastric carcinoma HGC-27 via MTT assay.

[3] = system: MDA-MB-468; assay: MTT cytotoxicity / anti-proliferation assay; format: cell-based; details: Homo sapiens, MDA-MB-468, 72 h, MDA-MB-468, MTT, read-out: IC50, cancer cell viability
[4] = system: SK-Hep-1; assay: MTT cytotoxicity / anti-proliferation assay; format: cell-based; details: SK-Hep-1, MTT, 72 h; read-out: IC50, cancer cell viability
[5] = system: HuH7; assay: MTT cytotoxicity / anti-proliferation assay; format: cell-based; details: 72 h, read-out: IC50, cancer cell viability
[6] = system: HCT-116; assay: MTT cytotoxicity / anti-proliferation assay; format: cell-based; details: Homo sapiens, HCT-116, 72 h, HCT-116, MTT, read-out: IC50, cancer cell viability
[7] = system: HCC-1806; assay: MTT cytotoxicity / anti-proliferation assay; format: cell-based; details: Homo sapiens, HCC1806, 72 h, HCC-1806, MTT, read-out: IC50, cancer cell viability
[8] = system: MCF-7; assay: MTT cytotoxicity / anti-proliferation assay; format: cell-based; details: Homo sapiens, MCF7, 72 h, MCF-7, MTT, read-out: IC50, cancer cell viability
[9] = system: HCC-1937; assay: MTT cytotoxicity / anti-proliferation assay; format: cell-based; details: Homo sapiens, HCC1937, 72 h, HCC-1937, MTT, read-out: IC50, cancer cell viability
[10] = system: MDA-MB-231; assay: MTT cytotoxicity / anti-proliferation assay; format: cell-based; details: Homo sapiens, MDA-MB-231, 72 h, MDA-MB-231, MTT, read-out: IC50, cancer cell viability
[11] = Solubility in aqueous solution (pure water, normal saline); format: physicochemical
[12] = Pharmacokinetic study; format: in vivo, SD rats; details: SD rats; for Cmax: read-out: Cmax
Protocol: 7–8-week Male SD rats weighing 180–220 g were allowed for this experiment. The rats were fasted 12 h except for water. The solution was administered to rats by intravenous injection of 10% ethanol +10% solutol as solvent and intragastric injection of 5% castor oil +5% solutol as solvent. The dose concentration was 8 mg/mL for intravenous injection and 10 mg/mL for gavage.
Twelve male SD rats were divided into 4 groups with 3 rats in each group. Group 1 was F8-intravenous injection group, the dose was 20 mg/kg; Group 2 was F8- intragastric administration group, the dose was 100 mg/kg; Group 3 was F8·2HCl-intragastric administration group, the dose was 100 mg/kg. Blank blood was collected before administration, and blood was collected at predetermined time points after administration:
Intravenous injection group: before administration, 2 min, 5 min, 15 min, 30 min, 1 h, 2 h, 4 h, 8 h, 12 h, 24 h. Intragastric administration group: Before administration, 5 min, 15 min, 30 min, 1 h, 2 h, 4 h, 6 h, 8 h, 12 h, 24 h. About 0.5 mL of blood was collected and placed in an EDTA-K2 tube at […]. The plasma was centrifuged and stored at −80°C. The samples were detected by liquid-mass spectrometry analysis system. The chromatographic column used was ODS-C18 (4.6 × 50 mm, 3 µm). The chromatographic conditions were as follows: Mobile phase A is aqueous phase, […] (including 0.1% formic acid); Mobile phase B is organic, 95% acetonitrile (containing 0.1% formic acid). Flow rate of 0.4 mL/min, column temperature: room temperature, according to the drug plasma concentration data, calculated pharmacokinetic parameters using DAS 2.0 software.
After oral administration, drugs need to go through four stages, namely, absorption, distribution, metabolism and excretion. However, the changes in solubility of drugs after salting only affect the absorption stage. Since absorption is accompanied by a dissolution process, the water solubility and dissolution rate of drugs are the main factors that determine their absorption, and then affect their oral bioavailability ([Elder et al., 2013]). Under the stimulation of cell activity and increased solubility, pharmacokinetic experiments were carried out to understand the drug exposure and provide a basis for further druggability of compound F8. In this study, compound F8 and F8·2HCl were administered in two different ways: tail vein injection (20 mg/kg) and gavage (100 mg/kg), and pharmacokinetic parameters were measured in Sprague-Dawley (SD) rats (Figures 3, 4).

[13] = system: MGC-803; design: method as in Feng et al., 2022; details: MGC-803, previous work; ref Feng et al., 2022; cited from earlier work
[14] = system: AGS; design: method as in Feng et al., 2022; details: previous work, ref Feng et al., 2022; cited from earlier work
[15] = system: GES-1; design: method as in Feng et al., 2022; details: GES-1 normal cells, previous work; ref Feng et al., 2022; cited from earlier work
[16] = male, Sprague-Dawley, rat, plasma, iv, 20 mg/kg
[17] = male, Sprague-Dawley, rat, plasma, oral, 100 mg/kg, 100 mg/kg, route ip (methods: intragastric)

With `N#CC1(c2ccc(NC(=O)c3cccnc3NCc3ccncc3)cc2)CCCC1` [Apatinib, apatinib, reference compound] the “tumor growth inhibition (TGI)” value ([1]; 37.5 mg/kg) was 50.0%.

Work on `O=C(NCc1ccc(NC(=O)c2cc(F)ccc2N2CCCC2)cc1)OCc1cccnc1` [F8] yielded an IC50 [2] of 0.26 ± 0.03 µM, an IC50 [3] of 1.45 ± 0.12 µM and an IC50 [4] of 1.65 ± 0.15 µM. It also gave an IC50 [5] of 2.35 ± 0.29 µM, an IC50 [6] of 4.89 ± 0.35 µM and an IC50 [7] of 21.1 ± 0.74 µM. It also gave an IC50 [8] of 43.5 ± 0.36 µM, an IC50 [9] of 47.05 ± 0.07 µM and an IC50 [10] of 53.8 ± 0.59 µM. For the same compound, the “solubility in normal saline” value ([11]; normal saline, compared with pure water) was “not much different from pure water”, the “Solubility in aqueous solution” value ([11]; pure water) was “less than 1 mg/mL” and the Tmax ([12]; 100 mg/kg, route ip (methods: intragastric), 100 mg/kg) was 0.19 h. The peak plasma concentration ([12]; oral administration 100 mg/kg, 100 mg/kg) was 0.4 µg/mL, the AUC(0-inf) [12, 16] was 6990 ng·h/mL and the half-life [12, 16] was 3.09 h. It also gave a Cmax ([12]; male, Sprague-Dawley, rat, plasma, iv, 20 mg/kg, 20 mg/kg, iv) of 12100 ng/mL, a Tmax ([12]; male, Sprague-Dawley, rat, plasma, iv, 20 mg/kg, 20 mg/kg, iv, read-out: Tmax) of 0.03 h and an AUC(0-inf) [12, 17] of 1130 ng·h/mL. For the same compound, the half-life [12, 17] was 2.66 h, the Cmax [12, 17] was 400 ng/mL and the bioavailability ([12]; male, Sprague-Dawley, rat, plasma, oral, 100 mg/kg, oral 100 mg/kg vs iv 20 mg/kg, read-out: bioavailability) was 3.23%. The AUC(0-t) ([12]; male, Sprague-Dawley, rat, plasma, po, 100 mg/kg, area under the concentration-time curve (AUC0-t), oral administration 100 mg/kg, heading: area under the concentration-time curve) was about 1130 ng·h/mL, the “tumor growth inhibition (TGI)” value ([1]; 75 mg/kg) was 52.8% and the IC50 [13] was 10.7 µM. The IC50 [14] was 23.3 µM and the IC50 [15] was over 100 µM.
